Key:
[1] = Degradation of Reb D and Reb M in phosphate buffer at 40° C. for 8 weeks, analysed by HPLC; assay type: physicochemical; settings: for % Reb D degradation 2 weeks: 2 weeks at 40° C.; for % Reb D degradation 4 weeks: 4 weeks at 40° C.; for % Reb D degradation 6 weeks: 6 weeks at 40° C.; for % Reb D degradation 8 weeks: 8 weeks at 40° C.
Experimental: A study was carried out as follows, samples were prepared comprising 50 ppm, 150 ppm, 250 ppm and 400 ppm, of Reb D and samples with the following ratios of Reb D:Reb M 1:4, 1:1, 4:1 wherein the total concentration of the sample was 400 ppm. The samples were prepared in phosphate buffer and the pH was adjusted using phosphoric acid. Samples were prepared at the following pH; 2.0, 2.5, 3.0 and 3.5. These samples were incubated at 40° C. for 8 weeks. This incubation protocol should mimic the degradation at room temperature over 6 months. The amount of Reb D and Reb M in each sample at T=0 was calculated by HPLC this was then used to calculate the amount of remaining Reb M in each sample at each specified time point. Aliquots were taken at 2, 4, 6 and 8 weeks and analysed by HPLC to determine the degradation of Reb D and combinations of Reb D and Reb M over the 8 week study.

[2] = cited from earlier work
[3] = pH 2, Reb D 0.008 % w/w + Reb M 0.032 % w/w
[4] = pH 2, Reb D 0.02 % w/w + Reb M 0.02 % w/w
[5] = pH 2, Reb D 0.032 % w/w + Reb M 0.008 % w/w
[6] = pH 2.5, Reb D 0.005 % w/w alone
[7] = pH 2.5, Reb D 0.008 % w/w + Reb M 0.032 % w/w
[8] = pH 2.5, Reb D 0.015 % w/w alone
[9] = pH 2.5, Reb D 0.02 % w/w + Reb M 0.02 % w/w
[10] = pH 2.5, Reb D 0.025 % w/w alone
[11] = pH 2.5, Reb D 0.032 % w/w + Reb M 0.008 % w/w
[12] = pH 3, Reb D 0.008 % w/w + Reb M 0.032 % w/w
[13] = pH 3, Reb D 0.02 % w/w + Reb M 0.02 % w/w
[14] = pH 3, Reb D 0.032 % w/w + Reb M 0.008 % w/w
[15] = pH 3.5, Reb D 0.005 % w/w alone
[16] = pH 3.5, Reb D 0.008 % w/w + Reb M 0.032 % w/w
[17] = pH 3.5, Reb D 0.015 % w/w alone
[18] = pH 3.5, Reb D 0.02 % w/w + Reb M 0.02 % w/w
[19] = pH 3.5, Reb D 0.025 % w/w alone
[20] = pH 3.5, Reb D 0.032 % w/w + Reb M 0.008 % w/w

C=C1C[C@@]23CC[C@H]4[C@@](C)(CCC[C@@]4(C)C(=O)O[C@@H]4O[C@H](CO)[C@@H](O)[C@H](O)[C@H]4O[C@@H]4O[C@H](CO)[C@@H](O)[C@H](O)[C@H]4O)[C@@H]2CC[C@]1(O[C@@H]1O[C@H](CO)[C@@H](O)[C@H](O[C@@H]2O[C@H](CO)[C@@H](O)[C@H](O)[C@H]2O)[C@H]1O[C@@H]1O[C@H](CO)[C@@H](O)[C@H](O)[C@H]1O)C3 [Reb D, rebaudioside D]
degradation of low concentration sample of Reb D versus higher concentration samples ([1]; across pH 2.0 to 3.5): degraded more quickly
additional degradation of 50 ppm Reb D sample versus 80 ppm Reb D sample in combination with 320 ppm Reb M ([1]; pH 2.0): approx. 10%
% Reb D degradation 2 weeks ([1]; pH 2, Reb D 0.005 % w/w alone): 37%
% Reb D degradation 4 weeks ([1]; pH 2, Reb D 0.005 % w/w alone): 73%
% Reb D degradation 6 weeks ([1]; pH 2, Reb D 0.005 % w/w alone): 84%
% Reb D degradation 8 weeks ([1]; pH 2, Reb D 0.005 % w/w alone): 91%
% Reb D degradation 2 weeks [1, 3]: 36%
% Reb D degradation 4 weeks [1, 3]: 62%
% Reb D degradation 6 weeks [1, 3]: 76%
% Reb D degradation 8 weeks [1, 3]: 85%
% Reb D degradation 2 weeks ([1]; pH 2, Reb D 0.015 % w/w alone): 28%
% Reb D degradation 4 weeks ([1]; pH 2, Reb D 0.015 % w/w alone): 70%
% Reb D degradation 6 weeks ([1]; pH 2, Reb D 0.015 % w/w alone): 82%
% Reb D degradation 8 weeks ([1]; pH 2, Reb D 0.015 % w/w alone): 90%
% Reb D degradation 2 weeks [1, 4]: 28%
% Reb D degradation 4 weeks [1, 4]: 59%
% Reb D degradation 6 weeks [1, 4]: 72%
% Reb D degradation 8 weeks [1, 4]: 82%
% Reb D degradation 2 weeks ([1]; pH 2, Reb D 0.025 % w/w alone): 32%
% Reb D degradation 4 weeks ([1]; pH 2, Reb D 0.025 % w/w alone): 68%
% Reb D degradation 6 weeks ([1]; pH 2, Reb D 0.025 % w/w alone): 81%
% Reb D degradation 8 weeks ([1]; pH 2, Reb D 0.025 % w/w alone): 89%
% Reb D degradation 2 weeks [1, 5]: 37%
% Reb D degradation 4 weeks [1, 5]: 63%
% Reb D degradation 6 weeks [1, 5]: 78%
% Reb D degradation 8 weeks [1, 5]: 86%
% Reb D degradation 2 weeks ([1]; pH 2, Reb D 0.04 % w/w alone): 32%
% Reb D degradation 4 weeks ([1]; pH 2, Reb D 0.04 % w/w alone): 66%
% Reb D degradation 6 weeks ([1]; pH 2, Reb D 0.04 % w/w alone): 79%
% Reb D degradation 8 weeks ([1]; pH 2, Reb D 0.04 % w/w alone): 86%
degradation of Reb D samples which also contained Reb M versus Reb D samples alone (FIG. 4) ([1]; pH 2.0 and 2.5, averaged over samples): degraded less
% Reb D degradation 2 weeks [1, 6]: 11%
% Reb D degradation 4 weeks [1, 6]: 37%
% Reb D degradation 6 weeks [1, 6]: 44%
% Reb D degradation 8 weeks [1, 6]: 55%
% Reb D degradation 2 weeks [1, 7]: 8%
% Reb D degradation 4 weeks [1, 7]: 28%
% Reb D degradation 6 weeks [1, 7]: 37%
% Reb D degradation 8 weeks [1, 7]: 42%
% Reb D degradation 2 weeks [1, 8]: 10%
% Reb D degradation 4 weeks [1, 8]: 32%
% Reb D degradation 6 weeks [1, 8]: 40%
% Reb D degradation 8 weeks [1, 8]: 50%
% Reb D degradation 2 weeks [1, 9]: 7%
% Reb D degradation 4 weeks [1, 9]: 25%
% Reb D degradation 6 weeks [1, 9]: 33%
% Reb D degradation 8 weeks [1, 9]: 42%
% Reb D degradation 2 weeks [1, 10]: 8%
% Reb D degradation 4 weeks [1, 10]: 27%
% Reb D degradation 6 weeks [1, 10]: 34%
% Reb D degradation 8 weeks [1, 10]: 44%
% Reb D degradation 2 weeks [1, 11]: 5%
% Reb D degradation 4 weeks [1, 11]: 23%
% Reb D degradation 6 weeks [1, 11]: 33%
% Reb D degradation 8 weeks [1, 11]: 42%
% Reb D degradation 2 weeks ([1]; pH 2.5, Reb D 0.04 % w/w alone): 7%
% Reb D degradation 4 weeks ([1]; pH 2.5, Reb D 0.04 % w/w alone): 25%
% Reb D degradation 6 weeks ([1]; pH 2.5, Reb D 0.04 % w/w alone): 34%
% Reb D degradation 8 weeks ([1]; pH 2.5, Reb D 0.04 % w/w alone): 43%
% Reb D degradation 2 weeks ([1]; pH 3, Reb D 0.005 % w/w alone): 0%
% Reb D degradation 4 weeks ([1]; pH 3, Reb D 0.005 % w/w alone): 17%
% Reb D degradation 6 weeks ([1]; pH 3, Reb D 0.005 % w/w alone): 22%
% Reb D degradation 8 weeks ([1]; pH 3, Reb D 0.005 % w/w alone): 29%
% Reb D degradation 2 weeks [1, 12]: 1%
% Reb D degradation 4 weeks [1, 12]: 17%
% Reb D degradation 6 weeks [1, 12]: 22%
% Reb D degradation 8 weeks [1, 12]: 24%
% Reb D degradation 2 weeks ([1]; pH 3, Reb D 0.015 % w/w alone): 0%
% Reb D degradation 4 weeks ([1]; pH 3, Reb D 0.015 % w/w alone): 11%
% Reb D degradation 6 weeks ([1]; pH 3, Reb D 0.015 % w/w alone): 16%
% Reb D degradation 8 weeks ([1]; pH 3, Reb D 0.015 % w/w alone): 22%
% Reb D degradation 2 weeks [1, 13]: 0%
% Reb D degradation 4 weeks [1, 13]: 17%
% Reb D degradation 6 weeks [1, 13]: 20%
% Reb D degradation 8 weeks [1, 13]: 23%
% Reb D degradation 2 weeks ([1]; pH 3, Reb D 0.025 % w/w alone): 1%
% Reb D degradation 4 weeks ([1]; pH 3, Reb D 0.025 % w/w alone): 10%
% Reb D degradation 6 weeks ([1]; pH 3, Reb D 0.025 % w/w alone): 13%
% Reb D degradation 8 weeks ([1]; pH 3, Reb D 0.025 % w/w alone): 19%
% Reb D degradation 2 weeks [1, 14]: 1%
% Reb D degradation 4 weeks [1, 14]: 14%
% Reb D degradation 6 weeks [1, 14]: 17%
% Reb D degradation 8 weeks [1, 14]: 20%
% Reb D degradation 2 weeks ([1]; pH 3, Reb D 0.04 % w/w alone): 0%
% Reb D degradation 4 weeks ([1]; pH 3, Reb D 0.04 % w/w alone): 9%
% Reb D degradation 6 weeks ([1]; pH 3, Reb D 0.04 % w/w alone): 11%
% Reb D degradation 8 weeks ([1]; pH 3, Reb D 0.04 % w/w alone): 18%
% Reb D degradation 8 weeks ([1]; pH 3.5, Reb D 0.005 % w/w (50 ppm) alone): 20%
% Reb D degradation 2 weeks [1, 15]: 1%
% Reb D degradation 4 weeks [1, 15]: 10%
% Reb D degradation 6 weeks [1, 15]: 14%
% Reb D degradation 2 weeks [1, 16]: 0%
% Reb D degradation 4 weeks [1, 16]: 6%
% Reb D degradation 6 weeks [1, 16]: 6%
% Reb D degradation 8 weeks [1, 16]: 9%
% Reb D degradation 2 weeks [1, 17]: 0%
% Reb D degradation 4 weeks [1, 17]: 4%
% Reb D degradation 6 weeks [1, 17]: 5%
% Reb D degradation 8 weeks [1, 17]: 8%
% Reb D degradation 2 weeks [1, 18]: 0%
% Reb D degradation 4 weeks [1, 18]: 6%
% Reb D degradation 6 weeks [1, 18]: 8%
% Reb D degradation 8 weeks [1, 18]: 9%
% Reb D degradation 2 weeks [1, 19]: 0%
% Reb D degradation 4 weeks [1, 19]: 2%
% Reb D degradation 6 weeks [1, 19]: 2%
% Reb D degradation 8 weeks [1, 19]: 5%
% Reb D degradation 2 weeks [1, 20]: 1%
% Reb D degradation 4 weeks [1, 20]: 2%
% Reb D degradation 6 weeks [1, 20]: 2%
% Reb D degradation 8 weeks [1, 20]: 5%
% Reb D degradation 8 weeks ([1]; pH 3.5, Reb D 0.04 % w/w (400 ppm) alone): 5%
% Reb D degradation 2 weeks ([1]; pH 3.5, Reb D 0.04 % w/w alone): 1%
% Reb D degradation 4 weeks ([1]; pH 3.5, Reb D 0.04 % w/w alone): 1%
% Reb D degradation 6 weeks ([1]; pH 3.5, Reb D 0.04 % w/w alone): 1%
stability of Reb D combined with Reb M in a ratio of about 1:1, compared to on its own ([1]; pH range 2.0 to 2.5): most stable
Sweetness potency (relative to sucrose) [2]: 221

From US11812767B2, “Beverage having Reb D and Reb M” (SUNTORY HOLDINGS LIMITED, priority 2018, dated 2023)
